Source: patent US5563125A, “5'-deoxy-5'-(substituted)alkylthioribose compounds and their pharmaceutical compositions” (priority 1992, dated 1996)
Values belong to the molecule of their own block, whether it stands above or below them.

What was measured:
[1] = system: T. b. brucei procyclic trypanosomes (Lab 110 EATRO strain); assay: In vitro antitrypanosomal activity, procyclic trypanosomes in T2 medium; type: cell-based, Trypanosoma brucei brucei; settings: Trypanosoma brucei, 3-5 days
Description: The antitrypanosomal effects of HETA and other nucleosides were examined in the Lab 110 EATRO strain of T. b. brucei in culture.
Cells were cultured as described in Bacchi et al. Exp. Parasitol. 68, 392, 1989. Cells were then grown in the presence of the compounds for 3-5 days. Drugs were filtered, sterilized and added aseptically. Control cells achieved a maximum density of 1.5-3.5×10^7 /ml. Hemocytometer counts were made daily and the results were expressed as a percent of control growth. IC50 plots were obtained by graphing log (drug) vs. percent growth inhibition.
Trypanocidal Activity of MTA and MTR Analogs
against T. b. brucei procyclic trypanosomes in T2 medium.

[2] = system: Plasmodium falciparum (Strain FCR-3: ATCC #30932); assay: Antimalarial activity in vitro, 3H-hypoxanthine incorporation; type: cell-based; settings: strain FCR-3, in vitro
Description: P. falciparum was cultured by the method of Trager and Jensen (1976). The FCR-3 strain was used for all experiments. For enzyme measurements, parasites were isolated from infected red cells by saponin lysis and stored at -70° C.
To determine drug effects, ^3 H-hypoxanthine incorporation was measured in the following manner. Infected red cells and varying concentrations of drugs were aliquoted in triplicate wells of a 96-well microtiter plate (Corning). Each well contained a total volume of 200 μl with a final hematocrit of 5 percent and parasitemia of 0.5-1%. The microtiter plates were incubated at 37° C. in candle jars. ^3 H-hypoxanthine (0.5 μCi) was added to each well after 24 hours. After an additional 24 hours of incubation, the parasites were harvested using a PHD cell harvester (Cambridge Technologies). Filters were immersed in Aquasol (New England Nuclear) and counted using a LKB rack beta scintillation counter.
*Concentration which inhibits growth by 50% when compared to untreated,
control cultures, and under defined assay conditions.

P. falciparum = assay: In vitro antimalarial activity of HETA; type: cell-based, Plasmodium falciparum; settings: P. falciparum in vitro screen
[3] = substrate: CSC[C@H]1O[C@@H](n2cnc3c(N)ncnc32)[C@H](O)[C@@H]1O; assay: Mouse liver MTA phosphorylase substrate/inhibitor assay; type: biochemical; settings: other: mouse liver MTA phosphorylase
Description: ^a MTA phosphorylase activity was assayed as described in Sufrin et

- IC50 [2]: > 1000 µM
Molecule: CCSC[C@H]1OC(O)[C@H](O)[C@@H]1O (stereo partly shown) [ETR, 5-deoxy-5-(ethylthio)ribose, reference compound]
- IC50 [1]: > 100 µM

- IC50 [2]: > 1000 µM
Molecule: OCCSC[C@H]1OC(O)[C@H](O)[C@@H]1O (stereo partly shown) [HETR, 5-deoxy-5-(hydroxyethylthio)ribose]
- growth of the microorganism inhibited in an in vitro screen (P. falciparum): not
- IC50 [1]: > 100 µM

Molecule: OC1O[C@H](CSCCF)[C@@H](O)[C@H]1O (stereo partly shown) [MFETR, 5-deoxy-5-(monofluoroethylthio)ribose]
- IC50 [2]: 700 µM

B1: Mouse Liver MTA Phosphorylase (Mus musculus) (protein)
chain: MASGSACTAVKIGIIGGTGLDDPEILEGRTEKYVDTPFGKPSDALILGKIKNVDCVLLARHGRQHTIMPSKVNYQANIWALKEEGCTHVIVTTACGSLREEIQPGDMVIIDQFIDRTSLRPQTFYDGSHCSARGVCHIPMAEPFCPKTREVLIETAKKLGLRCHSKGTIVTIEGPRFSSRAESLIFRTWGADVVNMTTVPEVVLAKEAGICYASIAMATDYDCWKEHEEAVSVDGVLKTMKENANKAKSLLLTTIPQIGSMEWSETLRNLKNMAQFSVLPPRH
notes: of Mouse Liver MTA Phosphorylase; from tissue; host or cells: mouse liver
- Km [3]: 1.3 µM
